Laboratory results: the NIST ThermoML archive (doi:10.1016/j.tca.2009.10.017)
Several values for one entry are separate records, joined by “and”; a condition that tells them apart may be missing. Equal values may be shown once.

Clc1c(Cl)c(Cl)c(Cl)c(Cl)c1Cl [hexachlorobenzene]
vapor or sublimation pressure, Crystal
Settings	isothermal thermogravimetry	non-isothermal thermogravimetry
359.7 K	0.002 kPa	–
360.2 K	0.003 kPa	–
361.6 K	0.003 kPa	–
362.5 K	0.003 kPa	–
363.6 K	0.004 kPa	–
364.4 K	0.003 kPa	–
364.5 K	0.004 kPa	–
365.4 K	0.004 kPa	–
365.5 K	0.004 kPa	–
367.4 K	0.005 kPa	–
368 K	0.005 kPa	–
369.5 K	0.005 kPa	–
370.3 K	0.005 kPa	–
371 K	0.006 kPa	–
371.5 K	0.006 kPa and 0.005 kPa	–
374.1 K	0.007 kPa	–
377.1 K	0.008 kPa	–
378.1 K	0.008 kPa	–
378.2 K	0.008 kPa	–
381.4 K	0.012 kPa and 0.011 kPa	–
382.3 K	0.012 kPa	–
382.4 K	0.011 kPa	–
383.1 K	0.012 kPa	–
384.4 K	0.014 kPa	–
385.8 K	0.015 kPa	–
386.2 K	0.015 kPa	–
386.6 K	0.013 kPa	–
388.5 K	0.016 kPa	–
392.7 K	0.021 kPa	–
393.3 K	0.024 kPa	–
396.3 K	0.026 kPa	–
396.7 K	0.026 kPa	–
397.5 K	–	0.038 kPa
399.6 K	0.031 kPa	–
400.4 K	–	0.048 kPa
400.6 K	0.038 kPa	–
400.8 K	–	0.041 kPa
401.2 K	–	0.048 kPa
402 K	–	0.047 kPa
402.8 K	–	0.057 kPa
403.2 K	0.044 kPa	–
403.6 K	–	0.05 kPa
404.1 K	–	0.061 kPa
404.4 K	0.043 kPa	–
404.5 K	–	0.051 kPa
404.9 K	–	0.058 kPa
405.3 K	–	0.053 kPa
405.8 K	–	0.063 kPa
406.1 K	–	0.052 kPa
406.5 K	–	0.06 kPa
407 K	–	0.064 kPa
407.4 K	–	0.061 kPa
407.8 K	–	0.064 kPa
408.2 K	–	0.07 kPa
408.3 K	0.057 kPa	–
408.6 K	–	0.066 kPa
409 K	–	0.078 kPa
409.4 K	–	0.071 kPa
409.8 K	–	0.079 kPa
410.2 K	–	0.076 kPa
410.6 K	–	0.073 kPa
411 K	–	0.074 kPa
411.4 K	–	0.089 kPa
411.9 K	–	0.069 kPa
412.3 K	0.066 kPa	0.078 kPa
412.7 K	–	0.084 kPa
413.2 K	–	0.083 kPa
413.6 K	–	0.085 kPa
414 K	–	0.088 kPa
414.4 K	–	0.093 kPa
414.9 K	–	0.093 kPa
415.3 K	–	0.089 kPa
415.7 K	–	0.101 kPa
416.1 K	–	0.094 kPa
416.5 K	–	0.101 kPa
417 K	–	0.101 kPa
417.4 K	–	0.11 kPa
417.8 K	–	0.118 kPa
418.2 K	–	0.112 kPa
418.6 K	–	0.113 kPa
419.1 K	–	0.129 kPa
419.5 K	–	0.131 kPa
419.9 K	–	0.118 kPa
420.3 K	–	0.134 kPa
420.7 K	–	0.134 kPa
421.1 K	–	0.128 kPa
421.5 K	–	0.131 kPa
421.9 K	–	0.144 kPa
422.3 K	–	0.144 kPa
422.8 K	–	0.143 kPa
423.2 K	–	0.159 kPa
423.6 K	–	0.146 kPa
424 K	–	0.149 kPa
424.4 K	–	0.152 kPa
424.8 K	–	0.169 kPa
425.7 K	–	0.173 kPa

Cl[C@H]1[C@H](Cl)[C@@H](Cl)[C@@H](Cl)[C@H](Cl)[C@H]1Cl [γ-1,2,3,4,5,6-hexachlorocyclohexane]
vapor or sublimation pressure
Settings	Crystal	Liquid
347.1 K, isothermal thermogravimetry	0.0017 kPa	–
349.8 K, isothermal thermogravimetry	0.0019 kPa	–
349.9 K, isothermal thermogravimetry	0.002 kPa	–
351.9 K, isothermal thermogravimetry	0.0025 kPa	–
352 K, isothermal thermogravimetry	0.0027 kPa	–
354.4 K, isothermal thermogravimetry	0.0034 kPa	–
355 K, isothermal thermogravimetry	0.0031 kPa	–
356.2 K, isothermal thermogravimetry	0.0039 kPa	–
356.4 K, isothermal thermogravimetry	0.0042 kPa	–
357.8 K, isothermal thermogravimetry	0.004 kPa	–
359.3 K, isothermal thermogravimetry	0.005 kPa	–
361.5 K, isothermal thermogravimetry	0.0052 kPa	–
363.2 K, isothermal thermogravimetry	0.006 kPa	–
364 K, isothermal thermogravimetry	0.0058 kPa	–
364.9 K, isothermal thermogravimetry	0.0082 kPa	–
367.2 K, isothermal thermogravimetry	0.0075 kPa	–
368.1 K, isothermal thermogravimetry	0.0104 kPa	–
371.1 K, isothermal thermogravimetry	0.0122 kPa	–
372.9 K, isothermal thermogravimetry	0.0122 kPa	–
374.3 K, isothermal thermogravimetry	0.0169 kPa	–
376.2 K, isothermal thermogravimetry	0.017 kPa	–
377.4 K, isothermal thermogravimetry	0.0225 kPa	–
377.5 K, non-isothermal thermogravimetry	0.024 kPa	0.024 kPa
378.3 K, non-isothermal thermogravimetry	0.026 kPa	0.026 kPa
379.1 K, non-isothermal thermogravimetry	0.027 kPa	0.027 kPa
379.3 K, isothermal thermogravimetry	0.0228 kPa	–
379.9 K, non-isothermal thermogravimetry	0.028 kPa	0.028 kPa
380.7 K, isothermal thermogravimetry	0.0294 kPa	–
380.7 K, non-isothermal thermogravimetry	0.03 kPa	0.03 kPa
381.5 K, non-isothermal thermogravimetry	0.032 kPa	0.032 kPa
381.8 K, isothermal thermogravimetry	0.0277 kPa	–
382.4 K, non-isothermal thermogravimetry	0.034 kPa	0.034 kPa
383.2 K, non-isothermal thermogravimetry	0.037 kPa	0.037 kPa
384 K, isothermal thermogravimetry	0.0365 kPa	–
384 K, non-isothermal thermogravimetry	0.038 kPa	0.038 kPa
384.8 K, non-isothermal thermogravimetry	0.041 kPa	0.041 kPa
386.4 K, non-isothermal thermogravimetry	–	0.044 kPa
387 K, non-isothermal thermogravimetry	–	0.049 kPa
387.4 K, isothermal thermogravimetry	–	0.045 kPa
387.6 K, non-isothermal thermogravimetry	–	0.044 kPa
387.9 K, non-isothermal thermogravimetry	–	0.046 kPa
388.2 K, non-isothermal thermogravimetry	–	0.044 kPa
388.6 K, non-isothermal thermogravimetry	–	0.043 kPa
389.2 K, isothermal thermogravimetry	–	0.049 kPa
389.9 K, isothermal thermogravimetry	–	0.055 kPa
390.5 K, isothermal thermogravimetry	–	0.053 kPa
390.8 K, non-isothermal thermogravimetry	–	0.051 kPa
392.1 K, isothermal thermogravimetry	–	0.06 kPa
392.1 K, non-isothermal thermogravimetry	–	0.065 kPa
393.2 K, non-isothermal thermogravimetry	–	0.06 kPa
393.5 K, isothermal thermogravimetry	–	0.07 kPa
393.6 K, isothermal thermogravimetry	–	0.065 kPa
394.1 K, non-isothermal thermogravimetry	–	0.067 kPa
395 K, non-isothermal thermogravimetry	–	0.07 kPa
395.9 K, non-isothermal thermogravimetry	–	0.079 kPa
396.6 K, isothermal thermogravimetry	–	0.08 kPa
396.7 K, non-isothermal thermogravimetry	–	0.085 kPa
397.6 K, non-isothermal thermogravimetry	–	0.074 kPa
398.5 K, non-isothermal thermogravimetry	–	0.074 kPa
398.7 K, isothermal thermogravimetry	–	0.088 kPa
398.9 K, isothermal thermogravimetry	–	0.086 kPa
399 K, isothermal thermogravimetry	–	0.093 kPa
399.9 K, isothermal thermogravimetry	–	0.093 kPa
400.2 K, non-isothermal thermogravimetry	–	0.088 kPa
400.3 K, isothermal thermogravimetry	–	0.095 kPa
401 K, non-isothermal thermogravimetry	–	0.1 kPa
401.7 K, isothermal thermogravimetry	–	0.103 kPa
401.9 K, non-isothermal thermogravimetry	–	0.109 kPa
402 K, non-isothermal thermogravimetry	–	0.095 kPa
402.8 K, non-isothermal thermogravimetry	–	0.106 kPa
403.6 K, non-isothermal thermogravimetry	–	0.104 kPa
403.7 K, isothermal thermogravimetry	–	0.114 kPa and 0.111 kPa
404.4 K, non-isothermal thermogravimetry	–	0.125 kPa
405.3 K, non-isothermal thermogravimetry	–	0.131 kPa
406.1 K, non-isothermal thermogravimetry	–	0.139 kPa
406.5 K, isothermal thermogravimetry	–	0.122 kPa
406.9 K, isothermal thermogravimetry	–	0.133 kPa
406.9 K, non-isothermal thermogravimetry	–	0.119 kPa
407.7 K, non-isothermal thermogravimetry	–	0.153 kPa
408.5 K, non-isothermal thermogravimetry	–	0.142 kPa
409.3 K, non-isothermal thermogravimetry	–	0.158 kPa
410.2 K, non-isothermal thermogravimetry	–	0.148 kPa
411 K, non-isothermal thermogravimetry	–	0.174 kPa
411.8 K, non-isothermal thermogravimetry	–	0.168 kPa
412.6 K, non-isothermal thermogravimetry	–	0.177 kPa
413.4 K, non-isothermal thermogravimetry	–	0.174 kPa
414.3 K, non-isothermal thermogravimetry	–	0.192 kPa
415.1 K, non-isothermal thermogravimetry	–	0.202 kPa
415.9 K, non-isothermal thermogravimetry	–	0.195 kPa
416.8 K, non-isothermal thermogravimetry	–	0.211 kPa
417.6 K, non-isothermal thermogravimetry	–	0.229 kPa
418.4 K, non-isothermal thermogravimetry	–	0.248 kPa
419.3 K, non-isothermal thermogravimetry	–	0.261 kPa
420.1 K, non-isothermal thermogravimetry	–	0.257 kPa
421 K, non-isothermal thermogravimetry	–	0.254 kPa
421.8 K, non-isothermal thermogravimetry	–	0.267 kPa
422.7 K, non-isothermal thermogravimetry	–	0.286 kPa
423.6 K, non-isothermal thermogravimetry	–	0.306 kPa
424.5 K, non-isothermal thermogravimetry	–	0.301 kPa
425.4 K, non-isothermal thermogravimetry	–	0.347 kPa
426.4 K, non-isothermal thermogravimetry	–	0.366 kPa
426.8 K, non-isothermal thermogravimetry	–	0.371 kPa
427.5 K, non-isothermal thermogravimetry	–	0.405 kPa
428.6 K, non-isothermal thermogravimetry	–	0.367 kPa
428.7 K, non-isothermal thermogravimetry	–	0.416 kPa
